This note sets out measurements from patent US20260217672A1, “BENZAMIDE COMPOUNDS FOR TREATMENT OF BACTERIAL INFECTIONS” (Hoffmann-La Roche Inc., priority 2022, published 2026).

Assay [1] deals with Escherichia coli ATCC 25922. Kind of assay: Minimal Inhibitory Concentration (MIC) broth dilution assay. Format: cell-based. As to conditions: ATCC25922, 20 h, read-out: MIC Escherichia coli ATCC 25922. The method, then:
(§1) The antibacterial activity of the compounds of the present invention was evaluated against the commonly used quality control strain Escherichia coli ATCC 25922 and the rifampin-resistant mutant strain Klebsiella pneumonia ATCC 43816. Both were originally derived from human clinical samples and are available from ATCC (American Type Culture Collection). The in vitro potency of compounds to inhibit Escherichia coli (ATCC 25922) and Klebsiella pneumonia (ATCC 43816) growth was assessed by the MIC (Minimal Inhibitory Concentration) broth dilution method. Specifically compound dilutions were prepared from 10 mM DMSO stock solutions as follows: i) serial 2-fold dilution in 20 μL DMSO were prepared in a master plate (Greiner, Cat No: 651201), ii) 180 μL sterile distilled water was added to each aliquot and iii) 10 μL diluted compounds were transferred into a new assay plate (Costar, 3599).
(§2) Vials of each test microorganisms were maintained frozen in the vapor phase of a liquid nitrogen freezer. Single-use frozen vials of the two strains Escherichia coli ATCC 25922 (KWIKSTIK, 0335K) and Klebsiella pneumonia ATCC 43816, with predetermined CFU/mL, were taken out from the freezer, thawed at room temperature, and diluted in Cation-Adjusted Mueller Hinton Broth (CAMHB) to achieve a final inoculum of 5×10^5 CFU/mL. 90 μL bacteria containing broth was dispensed to the assay plate containing the pre-dispensed compound dilutions and mixed by pipetting 5 times.
(§3) Then the assay plates were incubated for 20 hours at 35° C. in ambient air. Following incubation, the MIC ([…]), the lowest concentration of drug that inhibits visible growth of the microorganism was read with the help of a magnification mirror and recorded.
In general terms: Dilution methods test growth across graded concentrations, often in twofold steps.

Assay [2] has as its system Klebsiella pneumonia ATCC 43816. Described as above. Format: cell-based. Conditions: Klebsiella pneumoniae, ATCC43816, 20 h, read-out: MIC Klebsiella pneumoniae ATCC43816. The method, then:
as §1, §2, §3

Converted amounts (≈) assume the structure as drawn.

As usually defined, the MIC is the lowest concentration found to suppress growth. On to `O=C(Nc1ccc(S(=O)(=O)N2CCN(c3cc(C(F)(F)F)cc(Cl)n3)CC2)cc1)c1cccc(OCC2CNC2)c1` [Example 050, 3-(Azetidin-3-ylmethoxy)-N-[4-[4-[6-chloro-4-(trifluoromethyl)-2-pyridyl]piperazin-1-yl]sulfonylphenyl]benzamide], for which the minimal inhibitory concentration (MIC) in assay [1] and in assay [2] was 1 µg/mL (≈ 1.64 µM) in each case.

For `N[C@@H]1CCN(c2cccc(C(=O)Nc3ccc(S(=O)(=O)N4CCN(c5cc(C(F)(F)F)cc(Cl)n5)CC4)cc3)c2)C1` [Example 051, N-[4-[4-[6-chloro-4-(trifluoromethyl)-2-pyridyl]piperazin-1-yl]sulfonylphenyl]-3-[(3R)-3-aminopyrrolidin-1-yl]benzamide], the values for the MIC in assay [1] and in assay [2] were 0.56 µg/mL (≈ 0.919 µM) and 1.1 µg/mL (≈ 1.81 µM), respectively.

Consider `NCCc1cccc(C(=O)Nc2ccc(S(=O)(=O)N3CCN(c4cc(C(F)(F)F)cc(Cl)n4)CC3)cc2)c1` [Example 053, 3-(2-Aminoethyl)-N-[4-[4-[6-chloro-4-(trifluoromethyl)-2-pyridyl]piperazin-1-yl]sulfonylphenyl]benzamide], for which the MIC in assay [1] was found to be 0.44 µg/mL (≈ 0.775 µM); in assay [2], 0.89 µg/mL (≈ 1.57 µM).

With `O=C(Nc1ccc(S(=O)(=O)N2CCN(c3cc(C(F)(F)F)cc(Cl)n3)CC2)cc1)c1cccc(N2CCNCC2)c1` [Example 054, N-[4-[4-[6-chloro-4-(trifluoromethyl)-2-pyridyl]piperazin-1-yl]sulfonylphenyl]-3-piperazin-1-yl-benzamide], the minimum inhibitory concentration (MIC) in assay [1] worked out at 0.48 µg/mL (≈ 0.788 µM); in assay [2] it was 0.95 µg/mL (≈ 1.56 µM).

With `NC1Cc2ccc(C(=O)Nc3ccc(S(=O)(=O)N4CCN(c5cc(C(F)(F)F)cc(Cl)n5)CC4)cc3)cc2C1` (centres unmarked) [Example 055, 2-Amino-N-[4-[4-[6-chloro-4-(trifluoromethyl)-2-pyridyl]piperazin-1-yl]sulfonylphenyl]indane-5-carboxamide], the MIC in assay [1] was 0.45 µg/mL (≈ 0.776 µM); in assay [2], 0.91 µg/mL (≈ 1.57 µM).

On to `NCc1ccc(O)c(C(=O)Nc2ccc(S(=O)(=O)N3CCN(c4cc(C(F)(F)F)cc(Cl)n4)CC3)cc2)c1` [Example 056, 5-(Aminomethyl)-N-[4-[4-[6-chloro-4-(trifluoromethyl)-2-pyridyl]piperazin-1-yl]sulfonylphenyl]-2-hydroxy-benzamide], for which the minimal inhibitory concentration (MIC) in assay [1] and in assay [2] was 3.8 µg/mL (≈ 6.67 µM) in each case.

Regarding `NCCC(N)C(=O)Nc1cccc(C(=O)Nc2ccc(S(=O)(=O)N3CCN(c4cc(C(F)(F)F)cc(Cl)n4)CC3)cc2)c1` (centres unmarked) [Example 057, N-[4-[4-[6-chloro-4-(trifluoromethyl)-2-pyridyl]piperazin-1-yl]sulfonylphenyl]-3-(2,4-diaminobutanoylamino)benzamide], the minimal inhibitory concentration (MIC) in assay [1] was 1 µg/mL (≈ 1.56 µM); in assay [2] it was 2 µg/mL (≈ 3.12 µM).

On to `NCCCNCc1ccnc(C(=O)Nc2ccc(S(=O)(=O)N3CCN(c4cc(C(F)(F)F)cc(Cl)n4)CC3)cc2)c1` [Example 058, 4-[(3-Aminopropylamino)methyl]-N-[4-[4-[6-chloro-4-(trifluoromethyl)-2-pyridyl]piperazin-1-yl]sulfonylphenyl]pyridine-2-carboxamide], for which the minimal inhibitory concentration (MIC) in assay [1] and in assay [2] was 3.8 µg/mL (≈ 6.21 µM) in each case.

As for `NCCCNCc1cccc(C(=O)Nc2ccc(S(=O)(=O)N3CCN(c4cc(C(F)(F)F)cc(Cl)n4)CC3)cc2)n1` [Example 059, 6-[(3-Aminopropylamino)methyl]-N-[4-[4-[6-chloro-4-(trifluoromethyl)-2-pyridyl]piperazin-1-yl]sulfonylphenyl]pyridine-2-carboxamide], the minimum inhibitory concentration (MIC) in assay [1] came to 1.9 µg/mL (≈ 3.1 µM); in assay [2] it was 3.8 µg/mL (≈ 6.21 µM).

As for `NCCCNCc1cncc(C(=O)Nc2ccc(S(=O)(=O)N3CCN(c4cc(C(F)(F)F)cc(Cl)n4)CC3)cc2)c1` [Example 060, 5-[(3-Aminopropylamino)methyl]-N-[4-[4-[6-chloro-4-(trifluoromethyl)-2-pyridyl]piperazin-1-yl]sulfonylphenyl]pyridine-3-carboxamide], the minimum inhibitory concentration (MIC) in assay [1] was found to be 0.48 µg/mL (≈ 0.784 µM); in assay [2], 1.9 µg/mL (≈ 3.1 µM).

With `NCCCNC1Cc2ccc(C(=O)Nc3ccc(S(=O)(=O)N4CCN(c5cc(C(F)(F)F)cc(Cl)n5)CC4)cc3)cc2C1` (centres unmarked) [Example 061, 2-(3-Aminopropylamino)-N-[4-[4-[6-chloro-4-(trifluoromethyl)-2-pyridyl]piperazin-1-yl]sulfonylphenyl]indane-5-carboxamide], the MIC in assay [1] was 0.53 µg/mL (≈ 0.832 µM); in assay [2] it was 1.1 µg/mL (≈ 1.73 µM).

Take `NCCCNC1CCc2ccc(C(=O)Nc3ccc(S(=O)(=O)N4CCN(c5cc(C(F)(F)F)cc(Cl)n5)CC4)cc3)cc21` (centres unmarked) [Example 062, 3-(3-Aminopropylamino)-N-[4-[4-[6-chloro-4-(trifluoromethyl)-2-pyridyl]piperazin-1-yl]sulfonylphenyl]indane-5-carboxamide]: the MIC was 2.1 µg/mL (≈ 3.3 µM) in assay [1] and 4.2 µg/mL (≈ 6.59 µM) in assay [2].

As to `COc1ccc(CN2CCC3CN(C)CC32)cc1C(=O)Nc1ccc(S(=O)(=O)N2CCN(c3cc(C(F)(F)F)cc(Cl)n3)CC2)cc1` (centres unmarked) [Example 063, N-[4-[4-[6-chloro-4-(trifluoromethyl)-2-pyridyl]piperazin-1-yl]sulfonylphenyl]-2-methoxy-5-[(5-methyl-2,3,3a,4,6,6a-hexahydropyrrolo[2,3-c]pyrrol-1-yl)methyl]benzamide], the minimal inhibitory concentration (MIC) in assay [1] and in assay [2] was 4.3 µg/mL (≈ 6.2 µM) in each case.

Take `NCCCNC1CCc2cc(C(=O)Nc3ccc(S(=O)(=O)N4CCN(c5cc(C(F)(F)F)cc(Cl)n5)CC4)cc3)ccc21` (centres unmarked) [Example 064, 1-(3-Aminopropylamino)-N-[4-[4-[6-chloro-4-(trifluoromethyl)-2-pyridyl]piperazin-1-yl]sulfonylphenyl]indane-5-carboxamide]: the values for the minimum inhibitory concentration (MIC) in assay [1] and in assay [2] were 2.1 µg/mL (≈ 3.3 µM) and 4.2 µg/mL (≈ 6.59 µM), respectively.

As for `NCCCOc1ccc(C(=O)Nc2ccc(S(=O)(=O)N3CCN(c4cc(C(F)(F)F)cc(Cl)n4)CC3)cc2)cc1OCCCN` [Example 065, 3,4-Bis(3-Aminopropoxy)-N-[4-[4-[6-chloro-4-(trifluoromethyl)-2-pyridyl]piperazin-1-yl]sulfonylphenyl]benzamide], the MIC amounted to 0.26 µg/mL (≈ 0.387 µM) in assay [1] and 0.52 µg/mL (≈ 0.775 µM) in assay [2].

For `NCCCN1CCCC1c1cccc(C(=O)Nc2ccc(S(=O)(=O)N3CCN(c4cc(C(F)(F)F)cc(Cl)n4)CC3)cc2)c1` (centres unmarked) [Example 066, 3-[1-(3-Aminopropyl)pyrrolidin-2-yl]-N-[4-[4-[6-chloro-4-(trifluoromethyl)-2-pyridyl]piperazin-1-yl]sulfonylphenyl]benzamide], the MIC in assay [1] turned out to be 0.51 µg/mL (≈ 0.783 µM); in assay [2], 1 µg/mL (≈ 1.54 µM).

Turning to `NCCCN1CCC(c2cccc(C(=O)Nc3ccc(S(=O)(=O)N4CCN(c5cc(C(F)(F)F)cc(Cl)n5)CC4)cc3)c2)C1` (centres unmarked) [Example 067, 3-[1-(3-Aminopropyl)pyrrolidin-3-yl]-N-[4-[4-[6-chloro-4-(trifluoromethyl)-2-pyridyl]piperazin-1-yl]sulfonylphenyl]benzamide], the MIC in assay [1] worked out at 0.51 µg/mL (≈ 0.783 µM); in assay [2], 1 µg/mL (≈ 1.54 µM).

Take `NC1CCN(CCc2ccc(C(=O)Nc3ccc(S(=O)(=O)N4CCN(c5cc(C(F)(F)F)cc(Cl)n5)CC4)cc3)cc2)C1` (centres unmarked) [Example 069, 4-[2-(3-Aminopyrrolidin-1-yl)ethyl]-N-[4-[4-[6-chloro-4-(trifluoromethyl)-2-pyridyl]piperazin-1-yl]sulfonylphenyl]benzamide]: the values for the MIC in assay [1] and in assay [2] were 1.2 µg/mL (≈ 1.88 µM) and 2.3 µg/mL (≈ 3.61 µM), respectively.

As to `NC1CCC12CN(CCc1ccc(C(=O)Nc3ccc(S(=O)(=O)N4CCN(c5cc(C(F)(F)F)cc(Cl)n5)CC4)cc3)cc1)C2` (centres unmarked) [Example 070, 4-[2-(7-Amino-2-azaspiro[3.3]heptan-2-yl)ethyl]-N-[4-[4-[6-chloro-4-(trifluoromethyl)-2-pyridyl]piperazin-1-yl]sulfonylphenyl]benzamide], the MIC was found to be 1.2 µg/mL (≈ 1.81 µM) in assay [1] and 2.4 µg/mL (≈ 3.62 µM) in assay [2].

As for `CN1CC2CCN(CCc3ccc(C(=O)Nc4ccc(S(=O)(=O)N5CCN(c6cc(C(F)(F)F)cc(Cl)n6)CC5)cc4)cc3)C2C1` (centres unmarked) [Example 071, N-[4-[4-[6-chloro-4-(trifluoromethyl)-2-pyridyl]piperazin-1-yl]sulfonylphenyl]-4-[2-(5-methyl-2,3,3a,4,6,6a-hexahydropyrrolo[2,3-c]pyrrol-1-yl)ethyl]benzamide], the minimal inhibitory concentration (MIC) in assay [1] and in assay [2] was 4.2 µg/mL (≈ 6.2 µM) each time.

Regarding `O=C(Nc1ccc(S(=O)(=O)N2CCN(c3cc(C(F)(F)F)cc(Cl)n3)CC2)cc1)c1ccc(CCNCCCN2CCOCC2)cc1` [Example 073, N-[4-[4-[6-chloro-4-(trifluoromethyl)-2-pyridyl]piperazin-1-yl]sulfonylphenyl]-4-[2-(3-morpholinopropylamino)ethyl]benzamide], the minimal inhibitory concentration (MIC) in assay [1] was found to be 1.4 µg/mL (≈ 2.01 µM); in assay [2], 2.9 µg/mL (≈ 4.17 µM).

On to `NC1CC12CCN(CCc1ccc(C(=O)Nc3ccc(S(=O)(=O)N4CCN(c5cc(C(F)(F)F)cc(Cl)n5)CC4)cc3)cc1)C2` (centres unmarked) [Example 074, 4-[2-(2-Amino-5-azaspiro[2.4]heptan-5-yl)ethyl]-N-[4-[4-[6-chloro-4-(trifluoromethyl)-2-pyridyl]piperazin-1-yl]sulfonylphenyl]benzamide], for which the MIC in assay [1] and in assay [2] was 2.8 µg/mL (≈ 4.22 µM) each time.
